Data published in PMC8767159, “Multiparameter Optimization of Trypanocidal Cruzain Inhibitors With In Vivo Activity and Favorable Pharmacokinetics” (Frontiers in Pharmacology, 2022).
Like-named read-outs stand apart in the source and are kept apart here.

How the values were obtained:
cruzain = biological target: T1, cruzain (Trypanosoma cruzi, UniProt P25779); assay: Cruzain enzyme inhibition assay (cleavage of fluorogenic substrate Z-FR-AMC); type: biochemical; conditions: for % cruzain inhibition, 0% Triton / % cruzain inhibition, 0.01% Triton / % cruzain inhibition, 0.1% Triton: Table S1; for % cruzain inhibition, 0% Triton: 0% Triton X-100; for % cruzain inhibition, 0.01% Triton: 0.01% Triton X-100; for % cruzain inhibition, 0.1% Triton: 0.1% Triton X-100; for inhibition at 100 µM: compound 100 µM, mean of three measures; for Mechanism of cruzain inhibition (Lineweaver-Burk plots): eight substrate and four inhibitor concentrations
T1 construct: made in house; host or cells: Escherichia coli (strain M15)
T1 sequence (P25779 123-337 limits assumed): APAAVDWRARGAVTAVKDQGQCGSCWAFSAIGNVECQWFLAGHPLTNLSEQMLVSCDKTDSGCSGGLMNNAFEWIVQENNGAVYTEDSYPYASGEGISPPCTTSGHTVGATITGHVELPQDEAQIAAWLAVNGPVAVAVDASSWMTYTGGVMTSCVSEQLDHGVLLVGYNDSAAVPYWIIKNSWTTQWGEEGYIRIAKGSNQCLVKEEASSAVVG
Experimental: Pro-cruzain truncated at the C-terminus was expressed and purified using a previously described protocol ([Ferreira et al., 2019]). Escherichia coli (strain M15) cultures were grown overnight at 37°C and 200 rpm in Luria Bertani (LB) medium supplemented with ampicillin (100 μg/ml) and kanamycin (50 μg/ml). Next, the cultures were diluted 10-fold in fresh LB medium supplemented with 0.5 M NaCl, 0.2% glucose, 1 mM betaine, 0.5 M sorbitol, 100 μg/ml ampicillin, and 50 μg/ml kanamycin and incubated at 37°C and 200 rpm. At an optical density (OD600) of 0.9, the cultures were incubated at 47°C for 20 min to promote the expression of chaperones. Then, the expression of cruzain was induced by adding isopropyl β-D-thiogalactopyranoside (IPTG) to a final concentration of 0.2 mM, which was followed by overnight incubation of the cultures at 20°C and 200 rpm. Next, the cultures were centrifuged (5,000 rpm, 30 min, 4°C), and the cells were suspended in 50 ml of lysis buffer (300 mM NaCl, 50 mM Tris-HCl, and 1.6 mg/ml lysozyme, pH 8.0) per liter of culture and lysed by sonication (12 cycles of 30 s). This cell lysate was centrifuged (9,000 rpm, 30 min, 4°C), and the supernatant was collected. Cruzain was precipitated by incubation with 35% ammonium sulfate (2 h), and this suspension was centrifuged at 9,000 rpm for 30 min at 4°C. The precipitated cruzain was resuspended in lysis buffer, and the sample was dialyzed to eliminate ammonium sulfate. The soluble fraction of the dialysate was loaded on a Ni−NTA column (Qiagen, Hilden, Germany), and the contaminants were washed using washing buffer (300 mM NaCl, 50 mM Tris-HCl, and 10 mM imidazole, pH 8.0). Cruzain was eluted by applying an increasing imidazole gradient: 25, 50, 75, 100, and 250 mM. The fractions containing cruzain were pooled together and dialyzed against 1.5 L of 0.1 M acetate buffer, pH 5.5, and then concentrated to 0.5 mg/ml. Pro-cruzain was activated by incubation with activation buffer (100 mM sodium acetate, pH 5.5, 10 mM EDTA, 5 mM DTT, and 1 M NaCl) at 37°C. […] After activation, the enzyme was diluted 20-fold in binding buffer (20 mM sodium phosphate and 150 mM NaCl, pH 7.2) and added to thiopropyl Sepharose 6B resin (GE Healthcare Life Sciences, Pittsburgh, PA). After overnight incubation at 4°C, the resin was loaded on a column, and cruzain was eluted with binding buffer supplemented with 20 mM DTT. Fractions containing cruzain were pooled together and stored in 0.1 M sodium acetate, pH 5.5, at −80°C.
Cruzain activity was followed by monitoring the cleavage of the fluorogenic substrate Z-Phe-Arg-aminomethyl coumarin (Z-FR-AMC), as previously described ([Ferreira et al., 2019]), using 96-well flat-bottom black plates and wavelengths of 355 nm for excitation and 460 nm for emission. All cruzain assays were performed in 0.1 M sodium acetate buffer with 5 mM dithiothreitol (DTT) and 0.01% Triton X-100, pH 5.5. […] The cleavage of the substrate was monitored for 5 min, and the activity was calculated based on the initial reaction rates compared with the rate of a DMSO control at 30°C. The IC50 values were independently calculated by considering the rate measurements for at least six inhibitor concentrations, each evaluated in triplicate. To determine the mechanism of cruzain inhibition, eight concentrations of the substrate Z-FR-AMC and four concentrations of the inhibitor were employed, each in triplicate. Kinetic parameters were determined using the SigmaPlot (Systat Software Inc., Erkrath, Germany) enzyme kinetics module. Compounds were tested in two or three independent experiments. All enzyme assays were performed using varying Triton X-100 concentrations (0, 0.01, and 0.1%) ([Ferreira et al., 2009]). Compound concentrations were 100 μM in the single-dose percentage inhibition assays.

[1] = test system: T. cruzi intracellular amastigotes; assay: Assay against T. cruzi intracellular amastigotes (Tulahuen lacZ strain in HFF-1 fibroblasts); type: cell-based, Trypanosoma cruzi
Experimental: Biological assays against T. cruzi intracellular amastigotes were performed as reported previously using the T. cruzi Tulahuen strain, which is genetically engineered to express the E. coli β-galactosidase gene lacZ ([Buckner et al., 1996]). β-Galactosidase catalyzes a colorimetric reaction with chlorophenol red β-D-galactopyranoside (CPRG, Sigma Chemical Co., St. Louis, MO) as the substrate. The assays were conducted in 96-well tissue culture plates, and the compounds to be tested were prepared in 100% DMSO. Epimastigotes were maintained in liver infusion tryptone (LIT) enriched with 10% fetal calf serum (FCS), streptomycin, and penicillin at 28°C. Epimastigotes were converted to trypomastigotes by incubation in Grace’s insect medium (Sigma–Aldrich, St. Louis, MO) enriched with 10% FCS at 28°C. Human HFF-1 fibroblasts were seeded at 2 × 10^3/well in 80 μl of RPMI 1640 without phenol red and incubated overnight at 37°C and 5% CO2. Trypomastigotes were seeded at 1.0 × 10^4/well in 20 μl of RPMI 1640, and the plates were incubated at 37°C and 5% CO2. The next day, the synthesized compounds were added (50 μl) in 3-fold serial dilutions at concentrations ranging from 0.4 to 300 μM, and the plates were incubated at 37°C and 5% CO2. Each compound concentration was assayed in triplicate. After 120 h, 50 μl of chlorophenol red β-D-galactopyranoside (CPRG, Sigma–Aldrich) and IGEPAL CA-630 (Sigma–Aldrich) at a final concentration of 0.1% were added. The absorbance was measured at a wavelength of 570 nm in an automated microplate reader. The data were transferred to SigmaPlot 10.0 (Systat Software Inc., Erkrath, Germany) to determine the IC50 values. Benznidazole (BZ, Sigma–Aldrich) was used as a positive control, and untreated wells (100% parasite growth) were used as negative controls in all plates. All compounds were tested in three independent assays.

[2] = 1.5 nM cruzain, 5.0 µM Z-FR-AMC, mean ± SD of 2–3 assays, read-out: IC50 (µM) against cruzain
[3] = Trypanosoma cruzi, HFF-1, 120 h, Table 3, 120 h, mean ± SD of three assays
[4] = Trypanosoma cruzi, HFF-1, Table 4, mean ± SD of three assays

Compound	IC50 (cruzain; [2]) [µM]	inhibition at 100 µM (cruzain) [%]	IC50 [1, 4] [µM]	other results
O=C(COc1ccccc1)NCCc1nc2ccccc2n1CCCOc1ccccc1 [Compound 24]	2.2 ± 1.2	81	1.43 ± 0.4	% cruzain inhibition, 0% Triton (cruzain): 87.9 ± 0.7%; % cruzain inhibition, 0.01% Triton (cruzain): 82.6 ± 0.3%; % cruzain inhibition, 0.1% Triton (cruzain): 82.9 ± 3.5%; IC50 (cruzain; Table S2, substrate 2.5 µM, read-out: IC50 (µM) cruzain at [S] 2.5 µM): 1.7 ± 1.3 µM; IC50 (cruzain; Table S2, substrate 5 µM, read-out: IC50 (µM) cruzain at [S] 5 µM): 2.2 ± 1.3 µM; IC50 (cruzain; Table S2, substrate 10 µM, read-out: IC50 (µM) cruzain at [S] 10 µM): 2.2 ± 1.1 µM; IC50 (cruzain; Table S2, substrate 15 µM, read-out: IC50 (µM) cruzain at [S] 15 µM): 1.9 ± 1.8 µM; IC50 (cruzain; Table S2, substrate 20 µM, read-out: IC50 (µM) cruzain at [S] 20 µM): 2.5 ± 1.2 µM; IC50 (cruzain; Table S2, substrate 40 µM, read-out: IC50 (µM) cruzain at [S] 40 µM): 2.1 ± 0.9 µM; Mechanism of cruzain inhibition (Lineweaver-Burk plots) (cruzain): noncompetitive; IC50 [1, 3]: 1.43 ± 0.4 µM
O=C(COc1ccc2ccccc2c1Br)NCCc1nc2ccccc2[nH]1 [Compound 34]	–	–	16.2 ± 3.51	–
O=C(COc1ccc2ccccc2c1)NCCc1nc2ccccc2[nH]1 [Compound 35]	–	–	46.1 ± 6.21	–
Cc1ccccc1OCC(=O)NCCc1nc2ccccc2n1CCOc1ccccc1Br [Compound 22]	–	36	–	–
Cc1ccccc1OCC(=O)NCCc1nc2ccccc2o1 [Compound 37]	–	–	2.9 ± 0.66	–
O=C(COc1ccc2cc(O)ccc2c1)NCCc1nc2ccccc2[nH]1 [Compound 10]	3.4 ± 0.9	90	14.6 ± 0.7	IC50 [1, 3]: 14.6 ± 0.7 µM
O=C(COc1ccccc1Br)NCCc1nc2ccccc2[nH]1 [Compound 18]	–	–	1.6	IC50 ([1]; Table 4, mean ± SD of three assays): 1.63 ± 0.57 µM
O=C(COc1ccc2c(C(=O)O)cccc2c1)NCCc1nc2ccccc2[nH]1 [Compound 15]	> 100	58	–	–
O=C(COc1ccccc1)NCCc1nc2ccccc2n1CCOc1ccccc1Br [Compound 19]	–	72	–	% cruzain inhibition, 0% Triton (cruzain): 73.4 ± 2.5%; % cruzain inhibition, 0.01% Triton (cruzain): 72.1 ± 1.7%; % cruzain inhibition, 0.1% Triton (cruzain): 77.5 ± 2.2%
Nc1cccc(OCC(=O)NCCc2nc3ccccc3[nH]2)c1 [Compound 9]	18.2 ± 1.8	90	–	IC50 [1, 3]: 5.4 ± 0.9 µM
O=C(COc1ccc(N2C(=O)CCC2=O)cc1)NCCc1nc2ccccc2[nH]1 [Compound 4]	–	20	–	–
O=C(COc1cccc(N2C(=O)CCC2=O)c1)NCCc1nc2ccccc2[nH]1 [Compound 6]	–	38	–	–
CC(=O)Nc1cccc(OCC(=O)NCCc2nc3ccccc3[nH]2)c1 [Compound 3]	28.1 ± 3.1	70	5 ± 1	IC50 [1, 3]: 5 ± 1 µM
O=C(COc1ccccc1[N+](=O)[O-])NCCc1nc2ccccc2[nH]1 [Compound 32]	–	–	7.9 ± 2.13	–
O=C(COc1ccccc1)NCCc1nc2ccccc2n1-c1ccccc1 [Compound 30]	8.6 ± 2.6	79	–	–
O=C(COc1ccccc1)NCCc1nc2ccccc2n1CCOCc1ccccc1 [Compound 21]	1.69 ± 0.4	76	–	% cruzain inhibition, 0% Triton (cruzain): 80.3 ± 1.4%; % cruzain inhibition, 0.01% Triton (cruzain): 85.5 ± 2.3%; % cruzain inhibition, 0.1% Triton (cruzain): 84.6 ± 1.3%
O=C(Cn1ccnc1[N+](=O)[O-])NCc1ccccc1 [BZ, benznidazole, reference compound]	–	–	3 ± 0.6	IC50 ([1]; Trypanosoma cruzi, HFF-1, Table 3, 120 h, mean ± SD of three assays): 1.45 ± 0.4 µM
O=C(COc1ccccc1)NCCc1nc2ccccc2[nH]1 [Compound 1]	10.9 ± 1	90	3.9 ± 0.3	Mechanism of cruzain inhibition (Lineweaver-Burk plots) (cruzain): competitive; IC50 [1, 3]: 3.9 ± 0.3 µM
NC(=O)Cn1c(CCNC(=O)COc2ccccc2)nc2ccccc21 [Compound 28]	12.1 ± 2.4	81	6.8 ± 0.9	IC50 [1, 3]: 6.8 ± 0.9 µM
CC(=O)Nc1ccc(OCC(=O)NCCc2nc3ccccc3[nH]2)cc1 [Compound 2]	4.5 ± 0.5	79	12.1 ± 1.3	IC50 [1, 3]: 4.5 ± 0.6 µM
O=C(COc1ccc(Br)cc1)NCCc1nc2ccccc2[nH]1 [Compound 33]	–	–	6.68 ± 2.35	–
COCCn1c(CCNC(=O)COc2ccccc2)nc2ccccc21 [Compound 29]	8.8 ± 1.8	79	–	–
Cc1ccccc1OCC(=O)NCCc1nc2ccccc2[nH]1 [Compound 17]	–	–	2.81 ± 0.75	–
O=C(COc1ccccc1Br)NCCc1nc2ccccc2n1CCOc1ccccc1Br [Compound 23]	–	49	–	% cruzain inhibition, 0% Triton (cruzain): 52.1 ± 1.3%; % cruzain inhibition, 0.01% Triton (cruzain): 53.2 ± 1.9%; % cruzain inhibition, 0.1% Triton (cruzain): 55.5 ± 5.2%
C=CCCn1c(CCNC(=O)COc2ccccc2Cl)nc2ccccc21 [Compound 38]	–	–	11.1 ± 3.19	–
O=C(COc1cccc(NC(=O)CCCO)c1)NCCc1nc2ccccc2[nH]1 [Compound 7]	–	75	–	–
